This series is described as follows: OECD 301D Closed Bottle Test (evaluation of ultimate biodegradability). The following applies: 60% or more biodegraded two weeks from start of decomposition, test period of 28 days. The source says:
Measuring of the ultimate biodegradability was made by taking an OECD 301D Closed Bottle Test (a test for determining whether or not 60% or more can be biodegraded two weeks from the time when the sample begins decomposing during the test period of 28 days) on cationic surfactants prepared in EXAMPLES 1 to 8, dimethyl dialkyl ammonium chloride, and imidazoline ester. The ultimate biodegradabilities of cationic surfactants of EXAMPLE 1, 2, 8, and conventional cationic surfactants were less than 60%, thereby not being readily biodegradable.

This is an account of results in patent US6414170B1, “Preparation of cationic surfactants containing ester group in molecules” (LG Chemical Ltd., priority 1998, dated 2002).

Turning to dimethyl dialkyl ammonium chloride, the Readily biodegradable result was “No”.
